Several values for one entry are separate records, joined by “and”; a condition that tells them apart may be missing. Equal values may be shown once. Toxic doses and inconclusive results are not listed.
Tested on: L1210 leukemia ip in BDF1 mice, survival T/C
Test: NCI In Vivo Anticancer Drug Screen. Data for tumor model L1210 Leukemia (intraperitoneal) in B6D2F1 (BDF1) mice
Settings: endpoint: mean survival time, higher = longer survival
Outline: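 Antitumor effect is assessed in tumor-bearing animals. Survival in the compound arm is compared with a vehicle-dosed control arm and expressed as their quotient.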

[1] = dose: 100.0 mg/kg/injection, schedule: Q04DX003 (ip), vehicle: saline with Tween-80
[2] = dose: 100.0 mg/kg/injection, schedule: Q01DX001 (ip), vehicle: carboxymethylcellulose (CMC)
[3] = dose: 200.0 mg/kg/injection, schedule: Q01DX001 (ip), vehicle: carboxymethylcellulose (CMC)
[4] = dose: 400.0 mg/kg/injection, schedule: Q01DX001 (ip), vehicle: carboxymethylcellulose (CMC)
[5] = dose: 100.0 mg/kg/injection, schedule: Q04DX003 (ip), vehicle: Klucel (hydroxypropylcellulose) (HPC)
[6] = dose: 200.0 mg/kg/injection, schedule: Q04DX003 (ip), vehicle: Klucel (hydroxypropylcellulose) (HPC)
[7] = dose: 25.0 mg/kg/injection, schedule: Q01DX009 (ip), vehicle: Klucel (hydroxypropylcellulose) (HPC)
[8] = dose: 100.0 mg/kg/injection, schedule: Q01DX009 (ip), vehicle: Klucel (hydroxypropylcellulose) (HPC)
[9] = dose: 100.0 mg/kg/injection, schedule: Q01DX001 (ip), vehicle: saline
[10] = dose: 200.0 mg/kg/injection, schedule: Q01DX001 (ip), vehicle: saline

C/C(=N/N)c1ccc(Br)cc1
T/C (dose: 3.7 mg/kg/injection, schedule: Q01DX009 (ip), vehicle: saline): 107 % of control
T/C (dose: 5.0 mg/kg/injection, schedule: Q01DX001 (ip), vehicle: saline): 94 % of control
T/C (dose: 7.5 mg/kg/injection, schedule: Q01DX009 (ip), vehicle: saline): 119 % of control
T/C (dose: 10.0 mg/kg/injection, schedule: Q01DX001 (ip), vehicle: saline): 97 % of control
T/C (dose: 20.0 mg/kg/injection, schedule: Q01DX001 (ip), vehicle: saline): 113 % of control
T/C (dose: 25.0 mg/kg/injection, schedule: Q04DX003 (ip), vehicle: saline with Tween-80): 105 % of control
T/C (dose: 40.0 mg/kg/injection, schedule: Q01DX001 (ip), vehicle: saline): 122 % of control
T/C (dose: 50.0 mg/kg/injection, schedule: Q04DX003 (ip), vehicle: saline with Tween-80): 110 % of control
T/C (dose: 80.0 mg/kg/injection, schedule: Q01DX001 (ip), vehicle: saline): 105 % of control
T/C [1]: 93 % of control

O=C1C(c2ccccc2)=CC(c2ccccc2)=C1c1ccccc1
T/C (dose: 50.0 mg/kg/injection, schedule: Q01DX001 (ip), vehicle: carboxymethylcellulose (CMC)): 91 % of control
T/C [2]: 91 % of control
T/C [3]: 94 % of control
T/C [4]: 94 % of control

Nc1ccc(CCCCc2c(N)nc(N)nc2N)cc1
T/C [5]: 97 % of control
T/C [6]: 93 % of control

CN(CCc1cnc2nc(N)nc(N)c2n1)c1ccc(C(=O)NC(CCC(=O)O)C(=O)O)cc1 (stereo unspecified)
T/C (dose: 12.5 mg/kg/injection, schedule: Q01DX009 (ip), vehicle: Klucel (hydroxypropylcellulose) (HPC)): 113 % of control
T/C [7]: 118 % of control
T/C (dose: 100.0 mg/kg/injection, schedule: Q04DX003 (ip), vehicle: saline): 110 % of control
T/C (dose: 200.0 mg/kg/injection, schedule: Q04DX003 (ip), vehicle: saline): 105 % of control

Cn1c(=O)c2c(nc(OC3CCCCCC3)n2C)n(C)c1=O
T/C (dose: 50.0 mg/kg/injection, schedule: Q01DX001 (ip), vehicle: other): 101 % of control
T/C (dose: 100.0 mg/kg/injection, schedule: Q01DX001 (ip), vehicle: other): 93 % of control
T/C (dose: 200.0 mg/kg/injection, schedule: Q01DX001 (ip), vehicle: other): 98 % of control

CCc1ccc(NC(=O)N(CCCl)N=O)cc1
T/C (dose: 10.0 mg/kg/injection, schedule: Q01DX009 (ip), vehicle: Klucel (hydroxypropylcellulose) (HPC)): 168 % of control and 175 % of control
T/C (dose: 20.0 mg/kg/injection, schedule: Q01DX009 (ip), vehicle: Klucel (hydroxypropylcellulose) (HPC)): 157 % of control and 172 % of control
T/C (dose: 25.0 mg/kg/injection, schedule: Q04DX003 (ip), vehicle: Klucel (hydroxypropylcellulose) (HPC)): 124 % of control
T/C (dose: 40.0 mg/kg/injection, schedule: Q01DX009 (ip), vehicle: Klucel (hydroxypropylcellulose) (HPC)): 88 % of control
T/C (dose: 50.0 mg/kg/injection, schedule: Q04DX003 (ip), vehicle: Klucel (hydroxypropylcellulose) (HPC)): 150 % of control and 159 % of control
T/C [2]: 101 % of control
T/C [6]: 105 % of control

Cc1cc(NC(=O)COc2ccc([N+](=O)[O-])cc2Cl)ccc1S(=O)(=O)F
T/C (dose: 100.0 mg/kg/injection, schedule: Q01DX001 (ip), vehicle: saline with Tween-80): 102 % of control
T/C (dose: 200.0 mg/kg/injection, schedule: Q01DX001 (ip), vehicle: saline with Tween-80): 98 % of control
T/C (dose: 400.0 mg/kg/injection, schedule: Q01DX001 (ip), vehicle: saline with Tween-80): 93 % of control

CCCP(=S)(CCC)N(C)C
T/C [1]: 101 % of control
T/C (dose: 200.0 mg/kg/injection, schedule: Q04DX003 (ip), vehicle: saline with Tween-80): 104 % of control

CCN(CC)CCN1C(=O)c2ccccc2S1(=O)=O
T/C (dose: 44.0 mg/kg/injection, schedule: Q01DX Z (ip), vehicle: saline): 100 % of control
T/C (dose: 66.0 mg/kg/injection, schedule: Q01DX Z (ip), vehicle: saline): 98 % of control
T/C (dose: 100.0 mg/kg/injection, schedule: Q01DX Z (ip), vehicle: saline): 98 % of control

Cc1cccc(Cl)c1NC(=O)c1cc([N+](=O)[O-])cc([N+](=O)[O-])c1
T/C [8]: 100 % of control
T/C (dose: 200.0 mg/kg/injection, schedule: Q01DX009 (ip), vehicle: Klucel (hydroxypropylcellulose) (HPC)): 96 % of control

C1CCC(N2OC23CCCCC3)CC1 (stereo unspecified)
T/C [2]: 92 % of control
T/C [3]: 90 % of control
T/C [4]: 92 % of control

CCN(CC)c1ccnc(SCc2ccccc2)n1
T/C (dose: 100.0 mg/kg/injection, schedule: Q01DX Z (ip), vehicle: methylcellulose (MC)): 89 % of control
T/C (dose: 200.0 mg/kg/injection, schedule: Q01DX Z (ip), vehicle: methylcellulose (MC)): 89 % of control

Clc1cc(/C=C/c2ccccc2)c2ccccc2n1
T/C [9]: 105 % of control
T/C [10]: 105 % of control
T/C (dose: 400.0 mg/kg/injection, schedule: Q01DX001 (ip), vehicle: saline): 100 % of control

CC(C)(C)c1cc(-c2cc(C(C)(C)C)c(O)c(C(C)(C)C)c2)cc(C(C)(C)C)c1O
T/C [5]: 104 % of control
T/C [6]: 107 % of control
T/C (dose: 400.0 mg/kg/injection, schedule: Q04DX003 (ip), vehicle: Klucel (hydroxypropylcellulose) (HPC)): 98 % of control

CCc1ccc(N=Nc2c(F)c(F)c(N(C)C)c(F)c2F)cc1
T/C [2]: 102 % of control
T/C [3]: 100 % of control
T/C [4]: 100 % of control

C/C=C\C=N\NC(=O)CCCCCCCCCCC
T/C [7]: 105 % of control
T/C (dose: 50.0 mg/kg/injection, schedule: Q01DX009 (ip), vehicle: Klucel (hydroxypropylcellulose) (HPC)): 91 % of control
T/C [8]: 100 % of control and 90 % of control

Cc1cc2ccccc2[n+](C)c1-c1ccccc1Cl
T/C (dose: 12.5 mg/kg/injection, schedule: Q04DX003 (ip), vehicle: saline): 102 % of control

ON=C(c1ccc(Cl)cc1)c1ccc(Cl)cc1
T/C (dose: 100.0 mg/kg/injection, schedule: Q01DX009 (ip), vehicle: saline with Tween-80): 95 % of control
T/C (dose: 200.0 mg/kg/injection, schedule: Q01DX009 (ip), vehicle: saline with Tween-80): 93 % of control
T/C (dose: 400.0 mg/kg/injection, schedule: Q01DX009 (ip), vehicle: saline with Tween-80): 93 % of control

CCCCCCCCC1=C(CCCCCCC(=O)OC)[14CH2]1
T/C (dose: 75.0 mg/kg/injection, schedule: Q04DX003 (ip), vehicle: saline): 100 % of control
T/C (dose: 150.0 mg/kg/injection, schedule: Q04DX003 (ip), vehicle: saline): 93 % of control
T/C (dose: 300.0 mg/kg/injection, schedule: Q04DX003 (ip), vehicle: saline): 90 % of control

O=C(/C=C/c1ccccc1)CC(O)(C(F)(F)F)C(F)(F)F
T/C (dose: 100.0 mg/kg/injection, schedule: Q04DX003 (sc), vehicle: olive oil, sesame oil, peanut oil): 113 % of control
T/C (dose: 200.0 mg/kg/injection, schedule: Q04DX003 (sc), vehicle: olive oil, sesame oil, peanut oil): 113 % of control
T/C (dose: 400.0 mg/kg/injection, schedule: Q04DX003 (sc), vehicle: olive oil, sesame oil, peanut oil): 108 % of control

CN(C)c1ccc(C(N)C(=O)O)cc1 (stereo unspecified)
T/C (dose: 50.0 mg/kg/injection, schedule: Q01DX001 (ip), vehicle: saline): 101 % of control
T/C [9]: 98 % of control
T/C [10]: 95 % of control

CC(=O)OCC1C2CCC(C2)C1C (stereo unspecified)
T/C (dose: 75.0 mg/kg/injection, schedule: Q01DX001 (ip), vehicle: acetone): 95 % of control
T/C (dose: 150.0 mg/kg/injection, schedule: Q01DX001 (ip), vehicle: acetone): 101 % of control
T/C (dose: 300.0 mg/kg/injection, schedule: Q01DX001 (ip), vehicle: acetone): 114 % of control

CC(C)c1ccc2c(c1)CCC1C(CN=C(N)CSS(=O)(=O)O)CCCC21C (stereo unspecified)
T/C (dose: 75.0 mg/kg/injection, schedule: Q01DX001 (ip), vehicle: saline with Tween-80): 95 % of control
T/C (dose: 150.0 mg/kg/injection, schedule: Q01DX001 (ip), vehicle: saline with Tween-80): 102 % of control

CC(C)(C)OC(=O)NOC(=O)c1ccc([N+](=O)[O-])cc1
T/C (dose: 100.0 mg/kg/injection, schedule: Q04DX002 (ip), vehicle: Klucel (hydroxypropylcellulose) (HPC)): 104 % of control
T/C (dose: 200.0 mg/kg/injection, schedule: Q04DX002 (ip), vehicle: Klucel (hydroxypropylcellulose) (HPC)): 96 % of control
T/C (dose: 400.0 mg/kg/injection, schedule: Q04DX002 (ip), vehicle: Klucel (hydroxypropylcellulose) (HPC)): 107 % of control

CNc1ccc(Cl)cc1C
T/C (dose: 100.0 mg/kg/injection, schedule: Q04DX002 (sc), vehicle: olive oil, sesame oil, peanut oil): 103 % of control
T/C (dose: 200.0 mg/kg/injection, schedule: Q04DX002 (sc), vehicle: olive oil, sesame oil, peanut oil): 110 % of control
T/C (dose: 400.0 mg/kg/injection, schedule: Q04DX002 (sc), vehicle: olive oil, sesame oil, peanut oil): 100 % of control

Reference: PubChem BioAssay AID248 (DTP/NCI, 2004)
